Measured values reported in ChEMBL document CHEMBL1151706, “Hetero-Diels-Alder reaction of 1,3-bis(trimethylsilyloxy)-1,3-butadienes with arylsulfonylcyanides. Synthesis and antimicrobial activity of 4-hydroxy-2-(arylsulfonyl)pyridines” (2008).
Values after ≈ are worked out from the molar mass of the structure shown. Active and inactive are the calls of the source. The rule behind the calls is not given here.

How the values were obtained:
Type in all cases: functional
[1] = test system: Bacillus subtilis; assay: Antibacterial activity against Bacillus subtilis ATCC 6051 assessed as diameter of the inhibition zone at 1 uM/disk after 4 hrs by disk diffusion method; details: for zone of inhibition at 1 µM: ATCC 6051, 4 h, read-out: IZ
[2] = test system: Candida maltosa; assay: Antifungal activity against Candida maltosa SBUG 700 assessed as diameter of the inhibition zone at 1 uM/disk by disk diffusion method
[3] = test system: Escherichia coli; assay: Antibacterial activity against Escherichia coli ATCC 11229 assessed as diameter of the inhibition zone at 1 uM/disk after 4 hrs by disk diffusion method
[4] = test system: Staphylococcus aureus; assay: Antibacterial activity against Staphylococcus aureus ATCC 6538 assessed as diameter of the inhibition zone at 1 uM/disk after 4 hrs by disk diffusion method; details: for zone of inhibition at 1 µM: ATCC 6538, 4 h, read-out: IZ
[5] = test system: Bacillus subtilis; assay: Antibacterial activity against Bacillus subtilis ATCC 6051 by dilution assay
[6] = test system: Staphylococcus aureus; assay: Antibacterial activity against Staphylococcus aureus ATCC 6538 by dilution assay

Compound: CCOc1cc(O)cc(S(=O)(=O)c2ccc(C)cc2)n1
- Activity [1]: inactive
- Activity [2]: inactive
- Activity [3]: inactive
- Activity [4]: inactive

Compound: CCOc1nc(S(=O)(=O)c2ccc(C)cc2)cc(O)c1F
- zone of inhibition at 1 µM [1]: 11 mm
- Activity [2]: inactive
- Activity [3]: inactive
- Activity [4]: inactive

Compound: CCOc1nc(S(=O)(=O)c2ccccc2)cc(O)c1Oc1cc(C)cc(C)c1
- Activity [1]: inactive
- Activity [2]: inactive
- Activity [3]: inactive
- Activity [4]: inactive

Compound: Cc1nc(S(=O)(=O)c2ccccc2)cc(O)c1Sc1ccccc1
- zone of inhibition at 1 µM [1]: 10 mm
- Activity [2]: inactive
- Activity [3]: inactive
- zone of inhibition at 1 µM [4]: 9 mm

Compound: COCCOc1cc(O)cc(S(=O)(=O)c2ccc(C)cc2)n1
- Activity [1]: inactive
- Activity [2]: inactive
- Activity [3]: inactive
- Activity [4]: inactive

Compound: Cc1ccc(Oc2c(O)cc(S(=O)(=O)c3ccc(C)cc3)nc2C)cc1
- zone of inhibition at 1 µM [1]: 7 mm
- Activity [2]: inactive
- Activity [3]: inactive
- zone of inhibition at 1 µM [4]: 8 mm

Compound: CCOc1cc(O)cc(S(=O)(=O)c2ccccc2)n1
- Activity [1]: inactive
- Activity [2]: inactive
- Activity [3]: inactive
- Activity [4]: inactive

Compound: COc1nc(S(=O)(=O)c2ccccc2)cc(O)c1Sc1ccccc1
- zone of inhibition at 1 µM [1]: 10 mm
- Activity [2]: inactive
- Activity [3]: inactive
- Activity [4]: inactive

Compound: CCOc1nc(S(=O)(=O)c2ccc(C)cc2)cc(O)c1Cl
- MIC [5]: 1520 µM (≈ 498 µg/mL)
- zone of inhibition at 1 µM [1]: 10 mm
- zone of inhibition at 1 µM ([2]; read-out: IZ): 9 mm
- Activity [3]: inactive
- zone of inhibition at 1 µM [4]: 13 mm
- MIC [6]: 1530 µM (≈ 502 µg/mL)

Compound: CC(C)Oc1cc(O)cc(S(=O)(=O)c2ccccc2)n1
- Activity [1]: inactive
- Activity [2]: inactive
- Activity [3]: inactive
- Activity [4]: inactive

Compound: Cc1ccc(Sc2c(O)cc(S(=O)(=O)c3ccc(C)cc3)nc2C)cc1
- MIC [5]: 160 µM (≈ 61.7 µg/mL)
- zone of inhibition at 1 µM [1]: 10 mm
- Activity [2]: inactive
- Activity [3]: inactive
- zone of inhibition at 1 µM [4]: 8 mm
- MIC [6]: 320 µM (≈ 123 µg/mL)

Compound: NYSTATIN
- inhibition zone (IZ) [2]: 28 mm

Compound: Cc1ccc(S(=O)(=O)c2cc(O)cc(C)n2)cc1
- Activity [1]: inactive
- Activity [2]: inactive
- Activity [3]: inactive
- Activity [4]: inactive

Compound: Cc1ccc(S(=O)(=O)c2cc(O)c(Oc3cccc(C)c3)c(C)n2)cc1
- Activity [1]: inactive
- Activity [2]: inactive
- Activity [3]: inactive
- Activity [4]: inactive

Compound: CC1(C)S[C@@H]2[C@H](NC(=O)[C@H](N)c3ccccc3)C(=O)N2[C@H]1C(=O)O [AMPICILLIN]
- MIC [5]: 11 µM (≈ 3.84 µg/mL)
- zone of inhibition at 1 µM [1]: 25 mm
- zone of inhibition at 1 µM ([3]; ATCC 11229, 4 h, read-out: IZ): 19 mm
- zone of inhibition at 1 µM [4]: 27 mm
- MIC [6]: 3 µM (≈ 1.05 µg/mL)

Compound: COCc1cc(O)cc(S(=O)(=O)c2ccc(C)cc2)n1
- Activity [1]: inactive
- Activity [2]: inactive
- Activity [3]: inactive
- Activity [4]: inactive

Compound: CCOc1nc(S(=O)(=O)c2ccccc2)cc(O)c1F
- MIC [5]: 1680 µM (≈ 499 µg/mL)
- zone of inhibition at 1 µM [1]: 11 mm
- Activity [2]: inactive
- Activity [3]: inactive
- zone of inhibition at 1 µM [4]: 12 mm
- MIC [6]: 3360 µM (≈ 999 µg/mL)

Compound: CCc1c(O)cc(S(=O)(=O)c2ccccc2)nc1OC
- Activity [1]: inactive
- Activity [2]: inactive
- Activity [3]: inactive
- Activity [4]: inactive

Compound: Cc1ccc(S(=O)(=O)c2cc(O)c(Sc3ccccc3)c(C)n2)cc1
- MIC [5]: 340 µM (≈ 126 µg/mL)
- zone of inhibition at 1 µM [1]: 10 mm
- Activity [2]: inactive
- Activity [3]: inactive
- Activity [4]: inactive
- MIC [6]: 670 µM (≈ 249 µg/mL)

Compound: Cc1cccc(Sc2c(O)cc(S(=O)(=O)c3ccccc3)nc2C)c1
- MIC [5]: 330 µM (≈ 123 µg/mL)
- zone of inhibition at 1 µM [1]: 10 mm
- Activity [2]: inactive
- Activity [3]: inactive
- zone of inhibition at 1 µM [4]: 13 mm
- MIC [6]: 670 µM (≈ 249 µg/mL)

Compound: COc1cc(O)cc(S(=O)(=O)c2ccccc2)n1
- Activity [1]: inactive
- Activity [2]: inactive
- Activity [3]: inactive
- Activity [4]: inactive

Compound: COc1cc(O)cc(S(=O)(=O)c2ccc(C)cc2)n1
- Activity [1]: inactive
- Activity [2]: inactive
- Activity [3]: inactive
- zone of inhibition at 1 µM [4]: 10 mm

Compound: CCOc1nc(S(=O)(=O)c2ccc(C)cc2)cc(O)c1Oc1cc(C)cc(C)c1
- Activity [1]: inactive
- Activity [2]: inactive
- Activity [3]: inactive
- zone of inhibition at 1 µM [4]: 8 mm

Compound: CCOc1nc(S(=O)(=O)c2ccccc2)cc(O)c1Cl
- MIC [5]: 1590 µM (≈ 499 µg/mL)
- zone of inhibition at 1 µM [1]: 11 mm
- Activity [2]: inactive
- Activity [3]: inactive
- zone of inhibition at 1 µM [4]: 12 mm
- MIC [6]: 1590 µM (≈ 499 µg/mL)
